pIC50: −log10 of the molar value.
Experiments:
Assay in all cases: cells
[1] = test system: MZ1-PC; assay type: functional, cell-based, Homo sapiens;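 also: cell viability assay measuring growth inhibition of human MZ1-PC cells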
Description: SANGER: Inhibition of human MZ1-PC cell growth in a cell viability assay.

[2] = test system: MZ7-mel; assay type: functional, cell-based, Homo sapiens;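 also: growth inhibition of human MZ7-mel cells, measured by a cell viability assay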
Description: SANGER: Inhibition of human MZ7-mel cell growth in a cell viability assay.

[3] = test system: A498; assay type: functional, cell-based, Homo sapiens;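 also: growth inhibition of human A498 cells, read out with a cell viability assay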
Description: SANGER: Inhibition of human A498 cell growth in a cell viability assay.

[4] = test system: UACC-257; assay type: functional, cell-based, Homo sapiens
Description: SANGER: Inhibition of human UACC-257 cell growth in a cell viability assay.

[5] = test system: HT-144; assay type: functional, cell-based, Homo sapiens
Description: SANGER: Inhibition of human HT-144 cell growth in a cell viability assay.

[6] = test system: SK-PN-DW; assay type: functional, cell-based, Homo sapiens;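 also: growth inhibition measured with a viability assay on these cells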
Description: SANGER: Inhibition of human SK-PN-DW cell growth in a cell viability assay.

[7] = test system: HEL; assay type: functional, cell-based, Homo sapiens;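 also: growth inhibition of HEL cells, read out with a cell viability assay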
Description: SANGER: Inhibition of human HEL cell growth in a cell viability assay.

[8] = test system: Ramos-2G6-4C10; assay type: functional, cell-based, Homo sapiens;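 also: growth inhibition of the cell line, measured by a cell viability read-out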
Description: SANGER: Inhibition of human Ramos-2G6-4C10 cell growth in a cell viability assay.

[9] = test system: AM-38; assay type: functional, cell-based, Homo sapiens;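 also: growth inhibition of AM-38 cells of human origin, read out by a cell viability assay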
Description: SANGER: Inhibition of human AM-38 cell growth in a cell viability assay.

[10] = test system: NH-12; assay type: functional, cell-based, Homo sapiens;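 also: growth inhibition of NH-12 cells, read out with a cell viability assay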
Description: SANGER: Inhibition of human NH-12 cell growth in a cell viability assay.

[11] = test system: DB; assay type: functional, cell-based, Homo sapiens
Description: SANGER: Inhibition of human DB cell growth in a cell viability assay.

[12] = test system: SK-LMS-1; assay type: functional, cell-based, Homo sapiens;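 also: growth inhibition of human SK-LMS-1 cells, read out with a cell viability assay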
Description: SANGER: Inhibition of human SK-LMS-1 cell growth in a cell viability assay.

[13] = test system: BT-474; assay type: functional, cell-based, Homo sapiens
Description: SANGER: Inhibition of human BT-474 cell growth in a cell viability assay.

[14] = test system: HT; assay type: functional, cell-based, Homo sapiens
Description: SANGER: Inhibition of human HT cell growth in a cell viability assay.

[15] = test system: SJSA-1; assay type: functional, cell-based, Homo sapiens;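 also: growth inhibition of human SJSA-1 cells, read out through a cell viability measurement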
Description: SANGER: Inhibition of human SJSA-1 cell growth in a cell viability assay.

[16] = test system: SCH; assay type: functional, cell-based, Homo sapiens;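 also: growth inhibition of human SCH cells, read out in a cell viability assay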
Description: SANGER: Inhibition of human SCH cell growth in a cell viability assay.

[17] = test system: TE-6; assay type: functional, cell-based, Homo sapiens;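 also: growth inhibition of TE-6 cells, read out with a cell viability assay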
Description: SANGER: Inhibition of human TE-6 cell growth in a cell viability assay.

[18] = test system: NCI-H2126; assay type: functional, cell-based, Homo sapiens;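 also: growth inhibition of the cancer cell line, determined with a cell viability readout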
Description: SANGER: Inhibition of human NCI-H2126 cell growth in a cell viability assay.

[19] = test system: RXF 393; assay type: functional, cell-based, Homo sapiens;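 also: growth inhibition of human RXF 393 cells, read out with a cell viability assay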
Description: SANGER: Inhibition of human RXF393 cell growth in a cell viability assay.

[20] = test system: SW684; assay type: functional, cell-based, Homo sapiens;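 also: growth inhibition of human SW684 cells, measured by a cell viability assay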
Description: SANGER: Inhibition of human SW684 cell growth in a cell viability assay.

[21] = test system: C8166; assay type: functional, cell-based, Homo sapiens;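 also: growth inhibition of human C8166 cells measured by a cell viability assay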
Description: SANGER: Inhibition of human C8166 cell growth in a cell viability assay.

[22] = test system: NCI-H226; assay type: functional, cell-based, Homo sapiens;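 also: cell viability read-out used to gauge growth inhibition of the cells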
Description: SANGER: Inhibition of human NCI-H226 cell growth in a cell viability assay.

[23] = test system: D-247MG; assay type: functional, cell-based, Homo sapiens
Description: SANGER: Inhibition of human D-247MG cell growth in a cell viability assay.

[24] = test system: QIMR-WIL; assay type: functional, cell-based, Homo sapiens;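 also: growth inhibition of QIMR-WIL cells, read out with a cell viability assay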
Description: SANGER: Inhibition of human QIMR-WIL cell growth in a cell viability assay.

[25] = test system: DMS-79; assay type: functional, cell-based, Homo sapiens;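 also: growth inhibition measured with a cell viability assay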
Description: SANGER: Inhibition of human DMS-79 cell growth in a cell viability assay.

[26] = test system: NB5; assay type: functional, cell-based, Homo sapiens;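 also: growth inhibition of NB5 cells, read out as cell viability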
Description: SANGER: Inhibition of human NB5 cell growth in a cell viability assay.

[27] = test system: SNU-5; assay type: functional, cell-based, Homo sapiens;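 also: cell viability readout used to measure growth inhibition in human NCI-SNU-5 cells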
Description: SANGER: Inhibition of human NCI-SNU-5 cell growth in a cell viability assay.

[28] = test system: U-87 MG; assay type: functional, cell-based, Homo sapiens, U-87MG ATCC;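 also: growth inhibition of the cells measured with a viability assay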
Description: SANGER: Inhibition of human U-87-MG cell growth in a cell viability assay.

[29] = test system: NCI-H1092; assay type: functional, cell-based, Homo sapiens;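 also: cell growth inhibition measured with a cell viability assay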
Description: SANGER: Inhibition of human NCI-H1092 cell growth in a cell viability assay.

[30] = test system: Calu-6; assay type: functional, cell-based, Homo sapiens;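 also: growth of human Calu-6 cells, read out by a cell viability assay, IC50 marking inhibition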
Description: SANGER: Inhibition of human Calu-6 cell growth in a cell viability assay.

[31] = test system: RS4-11; assay type: functional, cell-based, Homo sapiens;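 also: growth inhibition of RS4-11 cells, read out by a cell viability assay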
Description: SANGER: Inhibition of human RS4-11 cell growth in a cell viability assay.

[32] = test system: D-263MG; assay type: functional, cell-based, Homo sapiens
Description: SANGER: Inhibition of human D-263MG cell growth in a cell viability assay.

[33] = test system: KM12; assay type: functional, cell-based, Homo sapiens;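 also: KM12 cell growth inhibition, read out with a cell viability assay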
Description: SANGER: Inhibition of human KM12 cell growth in a cell viability assay.

[34] = test system: JAR; assay type: functional, cell-based, Homo sapiens;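 also: growth inhibition of human JAR cells determined with a cell viability assay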
Description: SANGER: Inhibition of human JAR cell growth in a cell viability assay.

[35] = test system: EW-1; assay type: functional, cell-based, Homo sapiens;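 also: growth inhibition of the human EW-1 cell line, read out by a cell viability assay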
Description: SANGER: Inhibition of human EW-1 cell growth in a cell viability assay.

[36] = test system: SK-MEL-2; assay type: functional, cell-based, Homo sapiens;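 also: growth inhibition of human SK-MEL-2 cells measured with a cell viability assay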
Description: SANGER: Inhibition of human SK-MEL-2 cell growth in a cell viability assay.

[37] = test system: LC-2-ad; assay type: functional, cell-based, Homo sapiens;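 also: growth inhibition of human LC-2-ad cells, read out with a cell viability assay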
Description: SANGER: Inhibition of human LC-2-ad cell growth in a cell viability assay.

[38] = test system: Becker; assay type: functional, cell-based, Homo sapiens;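 also: growth inhibition of Becker cells, read out with a cell viability assay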
Description: SANGER: Inhibition of human Becker cell growth in a cell viability assay.

[39] = test system: ACN; assay type: functional, cell-based, Homo sapiens;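 also: growth inhibition of the human ACN cell line, read out via cell viability testing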
Description: SANGER: Inhibition of human ACN cell growth in a cell viability assay.

[40] = test system: HuTu80; assay type: functional, cell-based, Homo sapiens, HUTU-80;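 also: growth inhibition of HuTu80 human cells, determined with a cell viability readout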
Description: SANGER: Inhibition of human HUTU-80 cell growth in a cell viability assay.

[41] = test system: NB10; assay type: functional, cell-based, Homo sapiens;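 also: growth inhibition of NB10 cells, read out by a cell viability assay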
Description: SANGER: Inhibition of human NB10 cell growth in a cell viability assay.

[42] = test system: TE-9; assay type: functional, cell-based, Homo sapiens;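 also: cell growth inhibition, measured with a cell viability readout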
Description: SANGER: Inhibition of human TE-9 cell growth in a cell viability assay.

[43] = test system: NCI-H446; assay type: functional, cell-based, Homo sapiens;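 also: growth inhibition of NCI-H446 cells determined by a cell viability assay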
Description: SANGER: Inhibition of human NCI-H446 cell growth in a cell viability assay.

[44] = test system: LNCaP-Clone-FGC; assay type: functional, cell-based, Homo sapiens
Description: SANGER: Inhibition of human LNCaP-Clone-FGC cell growth in a cell viability assay.

[45] = test system: TE-10; assay type: functional, cell-based, Homo sapiens;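 also: growth inhibition of TE-10 cells, measured by a cell viability assay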
Description: SANGER: Inhibition of human TE-10 cell growth in a cell viability assay.

[46] = test system: HCC2218; assay type: functional, cell-based, Homo sapiens; conditions: hcc2218;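 also: cell viability assay read-out, with IC50 given as the concentration that inhibits growth of the cell line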
Description: SANGER: Inhibition of human HCC2218 cell growth in a cell viability assay.

[47] = test system: NCI-H69; assay type: functional, cell-based, Homo sapiens; conditions: nci-h69;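 also: growth inhibition of the cell line, read out with a cell viability assay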
Description: SANGER: Inhibition of human NCI-H69 cell growth in a cell viability assay.

[48] = test system: DU-4475; assay type: functional, cell-based, Homo sapiens; conditions: du-4475
Description: SANGER: Inhibition of human DU-4475 cell growth in a cell viability assay.

CS(=O)(=O)c1ccc(C(=O)Nc2ccc(Cl)c(-c3ccccn3)c2)c(Cl)c1 [VISMODEGIB]
pIC50 ([1]; Homo sapiens, MZ1-PC): < 5.00 | pIC50 ([2]; Homo sapiens, MZ7-mel): < 5.00 | pIC50 ([3]; Homo sapiens, A498): < 5.00 | pIC50 ([4]; Homo sapiens, UACC-257): < 5.00 | pIC50 ([5]; Homo sapiens, HT-144): < 5.00 | pIC50 ([6]; Homo sapiens, SK-PN-DW): < 5.00 | pIC50 ([7]; Homo sapiens, HEL): < 5.00 | pIC50 ([8]; Homo sapiens, Ramos-2G6-4C10): < 5.00 | pIC50 ([9]; Homo sapiens, AM-38): < 5.00 | pIC50 ([10]; Homo sapiens, NH-12): < 5.00 | pIC50 ([11]; Homo sapiens, DB): < 5.00 | pIC50 ([12]; Homo sapiens, SK-LMS-1): < 5.00 | pIC50 ([13]; Homo sapiens, BT-474): < 5.00 | pIC50 ([14]; Homo sapiens, HT): < 5.00 | pIC50 ([15]; Homo sapiens, SJSA-1): < 5.00 | pIC50 ([16]; Homo sapiens, SCH): < 5.00 | pIC50 ([17]; Homo sapiens, TE-6): < 5.00 | pIC50 ([18]; Homo sapiens, NCI-H2126): < 5.00 | pIC50 ([19]; Homo sapiens, RXF 393): < 5.00 | pIC50 ([20]; Homo sapiens, SW684): < 5.00 | pIC50 ([21]; Homo sapiens, C8166): < 5.00 | pIC50 ([22]; Homo sapiens, NCI-H226): < 5.00 | pIC50 ([23]; Homo sapiens, D-247MG): < 5.00 | pIC50 ([24]; Homo sapiens, QIMR-WIL): < 5.00 | pIC50 ([25]; Homo sapiens, DMS-79): < 5.00 | pIC50 ([26]; Homo sapiens, NB5): < 5.00 | pIC50 ([27]; Homo sapiens, SNU-5): < 5.00 | pIC50 ([28]; Homo sapiens, U-87 MG): < 5.00 | pIC50 ([29]; Homo sapiens, NCI-H1092): < 5.00 | pIC50 ([30]; Homo sapiens, Calu-6): < 5.00 | pIC50 ([31]; Homo sapiens, RS4-11): < 5.00 | pIC50 ([32]; Homo sapiens, D-263MG): < 5.00 | pIC50 ([33]; Homo sapiens, KM12): < 5.00 | pIC50 ([34]; Homo sapiens, JAR): < 5.00 | pIC50 ([35]; Homo sapiens, EW-1): < 5.00 | pIC50 ([36]; Homo sapiens, SK-MEL-2): < 5.00 | pIC50 ([37]; Homo sapiens, LC-2-ad): < 5.00 | pIC50 ([38]; Homo sapiens, Becker): < 5.00 | pIC50 ([39]; Homo sapiens, ACN): 5.07 | pIC50 ([40]; Homo sapiens, HuTu80): < 5.00 | pIC50 ([41]; Homo sapiens, NB10): < 5.00 | pIC50 ([42]; Homo sapiens, TE-9): < 5.00 | pIC50 ([43]; Homo sapiens, NCI-H446): < 5.00 | pIC50 ([44]; Homo sapiens, LNCaP-Clone-FGC): < 5.00 | pIC50 ([45]; Homo sapiens, TE-10): < 5.00

CISPLATIN
pIC50 ([1]; mz1-pc): 4.52 | pIC50 ([2]; mz7-mel): 5.18 | pIC50 ([3]; a498): 4.71 | pIC50 ([4]; uacc-257): 3.97 | pIC50 ([5]; ht-144): 5.45 | pIC50 ([6]; sk-pn-dw): 4.46 | pIC50 ([7]; hel): 5.86 | pIC50 ([8]; ramos-2g6-4c10): 4.58 | pIC50 ([9]; am-38): 3.65 | pIC50 ([10]; nh-12): 4.88 | pIC50 ([11]; db): 5.67 | pIC50 ([12]; sk-lms-1): 3.09 | pIC50 ([13]; bt-474): 2.96 | pIC50 ([14]; ht): 3.60 | pIC50 ([15]; sjsa-1): 4.64 | pIC50 [46]: 3.40 | pIC50 ([16]; sch): 4.88 | pIC50 ([17]; te-6): 4.24 | pIC50 ([18]; nci-h2126): 3.66 | pIC50 ([19]; rxf 393): 5.10 | pIC50 ([20]; sw684): 3.23 | pIC50 ([21]; c8166): 3.68 | pIC50 ([22]; nci-h226): 4.38 | pIC50 ([23]; d-247mg): 4.96 | pIC50 ([24]; qimr-wil): 4.53 | pIC50 ([25]; dms-79): 4.61 | pIC50 [47]: 3.64 | pIC50 ([26]; nb5): 5.26 | pIC50 [48]: 3.95 | pIC50 ([27]; snu-5): 3.85 | pIC50 ([28]; u-87mg atcc): 4.79 | pIC50 ([29]; nci-h1092): 4.81 | pIC50 ([30]; calu-6): 4.12 | pIC50 ([31]; rs4-11): 5.25 | pIC50 ([32]; d-263mg): 5.18 | pIC50 ([33]; km12): 3.94 | pIC50 ([34]; jar): 5.47 | pIC50 ([35]; ew-1): 5.07 | pIC50 ([36]; sk-mel-2): 3.65 | pIC50 ([37]; lc-2-ad): 4.91 | pIC50 ([38]; becker): 4.75 | pIC50 ([39]; acn): 4.46 | pIC50 ([40]; hutu-80): 3.33 | pIC50 ([41]; nb10): 4.94 | pIC50 ([42]; te-9): 4.81 | pIC50 ([43]; nci-h446): 4.43 | pIC50 ([44]; lncap-clone-fgc): 3.29 | pIC50 ([45]; te-10): 3.80

From ChEMBL document CHEMBL1201861, “Genomics of Drug Sensitity in Cancer screening data, Wellcome Trust Sanger Institute”
